Reference: US20210161897A1, “EPIDERMAL GROWTH FACTOR RECEPTOR TYROSINE KINASE INHIBITORS FOR THE TREATMENT OF CANCER” (AstraZeneca AB, priority 2019, published 2021)

Test system: PC9 xenograft tumours
Assay: PC9 xenograft antitumour efficacy and regrowth
Assay type: in vivo, female SCID mice
Description: PC9 xenograft tumours were established by subcutaneous implantation of 5×10^6 cells per animal, in 100 μl of cell suspension including 50% matrigel, into the dorsal left flank of female SCID mice. All mice were older than 6 weeks at the time of cell implant. Tumor growth was monitored twice weekly by bilateral calliper measurements and tumour volume calculated using elliptical formula (pi/6×width×width×length).
Mice were randomized into vehicle or treatment groups with approximate mean start size of 0.2 cm3. Randomization for animal studies was based on initial tumour volumes to ensure equal distribution across groups. Mice were dosed daily by oral gavage with vehicle or 25 mg/kg osimertinib or once weekly by intravenous with 25 mg/kg AZD2811 or with the combination of osimertinib and AZD2811. Note that all treatments were stopped on day 28. However, tumour growth was followed for approximately 200 additional days.

Compound: C=CC(=O)Nc1cc(Nc2nccc(-c3cn(C)c4ccccc34)n2)c(OC)cc1N(C)CCN(C)C [osimertinib, N-(2-{2-dimethylaminoethyl-methylamino}-4-methoxy-5-{[4-(1-methylindol-3-yl)pyrimidin-2-yl]amino}phenyl) prop-2-enamide]
- tumour shrinkage during 4-week treatment (monotherapy, 25 mg/kg, osimertinib daily oral, AZD2811 once weekly intravenous): complete shrinkage
- time at which tumour regrowth was observed (osimertinib 25 mg/kg daily oral gavage for 28 days, then treatment stopped): around 80 days
